Assay results published in patent US20210300900A1, “OGA INHIBITOR COMPOUNDS” (Janssen Pharmaceutica NV, priority 2018, published 2021).

Biological target: T1, recombinant human Meningioma Expressed Antigen 5 (MGEA5), also referred to as O-GcNAcase (OGA) (Homo sapiens, UniProt O60502)
T1 construct: Full length OGA enzyme was purchased at OnGene (cat #TP322411); purchased OnGene (so in the source)
T1 sequence (O60502 1-916): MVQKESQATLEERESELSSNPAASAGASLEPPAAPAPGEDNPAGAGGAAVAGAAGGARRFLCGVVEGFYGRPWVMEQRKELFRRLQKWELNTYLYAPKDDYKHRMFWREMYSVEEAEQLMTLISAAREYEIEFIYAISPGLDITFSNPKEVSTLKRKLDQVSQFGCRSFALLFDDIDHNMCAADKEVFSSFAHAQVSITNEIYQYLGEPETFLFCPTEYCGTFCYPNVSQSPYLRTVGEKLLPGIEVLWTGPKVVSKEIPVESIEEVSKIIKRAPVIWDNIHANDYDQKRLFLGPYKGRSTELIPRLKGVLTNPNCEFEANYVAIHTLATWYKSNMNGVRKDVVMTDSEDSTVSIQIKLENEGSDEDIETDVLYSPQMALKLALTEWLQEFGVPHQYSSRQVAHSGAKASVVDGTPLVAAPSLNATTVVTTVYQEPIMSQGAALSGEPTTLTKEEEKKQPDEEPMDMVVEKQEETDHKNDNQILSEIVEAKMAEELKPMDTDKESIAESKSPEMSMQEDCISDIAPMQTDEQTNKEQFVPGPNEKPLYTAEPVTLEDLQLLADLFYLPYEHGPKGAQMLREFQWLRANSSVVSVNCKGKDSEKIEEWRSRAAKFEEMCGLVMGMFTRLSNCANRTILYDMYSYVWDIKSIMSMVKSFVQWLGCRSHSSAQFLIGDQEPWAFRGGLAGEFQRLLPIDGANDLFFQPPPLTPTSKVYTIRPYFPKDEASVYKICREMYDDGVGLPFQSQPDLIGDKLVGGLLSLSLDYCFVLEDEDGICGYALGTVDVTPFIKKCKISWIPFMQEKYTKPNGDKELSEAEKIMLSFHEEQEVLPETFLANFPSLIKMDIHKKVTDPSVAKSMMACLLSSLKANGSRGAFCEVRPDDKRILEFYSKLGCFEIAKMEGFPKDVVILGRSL
Test: OGA biochemical assay (inhibition of FM-GlcNAc hydrolysis, fluorescence)
Settings: FM-GlcNAc substrate; for Emax: read-out: Enzymatic Emax (%); for IC50: read-out: Enzymatic hOGA, pIC50 (converted)
Source text: The assay is based on the inhibition of the hydrolysis of fluorescein mono-β-D-N-Acetyl-Glucosamine (FM-GlcNAc) (Mariappa et al. 2015, Biochem J 470:255) by the recombinant human Meningioma Expressed Antigen 5 (MGEA5), also referred to as O-GcNAcase (OGA). The hydrolysis FM-GlcNAc (Marker Gene technologies, cat #M1485) results in the formation of B-D-N-glucosamineacetate and fluorescein. The fluorescence of the latter can be measured at excitation wavelength 485 nm and emission wavelength 538 nm. An increase in enzyme activity results in an increase in fluorescence signal. Full length OGA enzyme was purchased at OnGene (cat #TP322411). The enzyme was stored in 25 mM Tris.HCl, pH 7.3, 100 mM glycine, 10% glycerol at −20° C. Thiamet G and GlcNAcStatin were tested as reference compounds (Yuzwa et al. 2008 Nature Chemical Biology 4:483; Yuzwa et al. 2012 Nature Chemical Biology 8:393). The assay was performed in 200 mM Citrate/phosphate buffer supplemented with 0.005% Tween-20. 35.6 g Na2HPO4 2H2O (Sigma, #C0759) were dissolved in 1 L water to obtain a 200 mM solution. 19.2 g citric acid (Merck, #1.06580) was dissolved in 1 L water to obtain a 100 mM solution. pH of the sodiumphosphate solution was adjusted with the citric acid solution to 7.2. The buffer to stop the reaction consists of a 500 mM Carbonate buffer, pH 11.0. 734 mg FM-GlcNAc were dissolved in 5.48 mL DMSO to obtain a 250 mM solution and was stored at −20° C. OGA was used at a 2 nM concentration and FM-GlcNAc at a 100 uM final concentration. Dilutions were prepared in assay buffer.
50 nl of a compound dissolved in DMSO was dispensed on Black Proxiplate TM 384 Plus Assay plates (Perkin Elmer, #6008269) and 3 μl fl-OGA enzyme mix added subsequently. Plates were pre-incubated for 60 min at room temperature and then 2 μl FM-GlcNAc substrate mix added. […] Plates were briefly centrifuged for 1 min at 1000 rpm and incubate at room temperature for 6 h. To stop the reaction 5 μl STOP buffer were added and plates centrifuge again 1 min at 1000 rpm. Fluorescence was quantified in the Thermo Scientific Fluoroskan Ascent or the PerkinElmer EnVision with excitation wavelength 485 nm and emission wavelength 538 nm.
For analysis a best-fit curve is fitted by a minimum sum of squares method. From this an IC50 value and Hill coefficient was obtained. High control (no inhibitor) and low control (saturating concentrations of standard inhibitor) were used to define the minimum and maximum values.

| SMILES | Emax | IC50 | Enzymatic Emax (%) | Enzymatic hOGA; pIC50 |
| --- | --- | --- | --- | --- |
| COc1cc(C(C)N2CCC[C@H](Cc3cc(C)nc(C)c3)C2)ccn1 (mixture of isomers) [Product 53] | 99% | 0.282 µM |  |  |
| CC(=O)Nc1cc(C(C)N2CC[C@H](Cc3ncc(C)nc3C)C2)n[nH]1 (stereo partly drawn) [Product 110] | 92% | 0.813 µM |  |  |
| CNC(=O)c1cncc(C(C)N2CC[C@H](Cc3cc(C)nc(OC)c3)C2)c1 (mixture of isomers) [Product 103] | 85% | 1.66 µM |  |  |
| CC(=O)Nc1cc(C(C)N2CC[C@H](Oc3cc(C)nc(C)c3)C2)n[nH]1 (mixture of isomers) [Product 116] | 57% | 8.32 µM |  |  |
| COc1cccc(C(C)N2CCCC(c3cc(C)nc(C)c3)C2)n1 (stereo not drawn) [Product 73] | 96% | 0.741 µM |  |  |
| CCOc1cc(C(C)N2CCC[C@H](Cc3cc(C)nc(C)c3)C2)nn1C (mixture of isomers) [Product 18] | 95% | 0.575 µM |  |  |
| CC(=O)Nc1cc(CN2CCC[C@H](Cc3cc(C)nc(C)c3)C2)n(C)n1 [Product 11] | 90% | 1.35 µM |  |  |
| COc1ccc(F)c([C@H](C)N2CC[C@H](Cc3ncc(F)cc3F)C2)n1 [Product 109] | 60% | 7.59 µM |  |  |
| COc1ccc(C)c([C@@H](C)N2CCC[C@H](Cc3cc(C)nc(C)c3)C2)n1 [Product 57] |  |  | 6% | <5 |
| CNC(=O)c1cc(C(C)N2CC[C@H](Cc3cc(C)nc(OC)c3)C2)n[nH]1 (mixture of isomers) [Product 101] | 75% | 3.16 µM |  |  |
| CCOc1cccc(C(C)N2CCC[C@H](Cc3cc(C)nc(C)c3)C2)n1 (mixture of isomers) [Product 49] | 98% | 0.219 µM |  |  |
| CCOc1cc(C(C)N2CC[C@H](Cc3cc(C)nc(C(F)(F)F)c3)C2)n[nH]1 (mixture of isomers) [Product 120] | 75% | 4.17 µM |  |  |
| COc1ccc(F)c([C@@H](C)N2CCC[C@H](Cc3cc(C)nc(C)c3)C2)n1 [Product 41] |  |  | 44% | <5 |
| CC(=O)Nc1cc(C(C)N2CCC[C@H](Cc3cc(C)nc(C)c3)C2)cnc1C (mixture of isomers) [Product 33] | 99% | 0.234 µM |  |  |
| COc1cccc([C@H](C)N2CCC[C@H](CNc3cc(C)nc(C(F)(F)F)c3)C2)n1 [Product 93] |  |  | 29% | <5 |

The remaining lines, values ahead:

| Emax | IC50 | Enzymatic Emax (%) | Enzymatic hOGA; pIC50 | SMILES |
| --- | --- | --- | --- | --- |
| 33.1% | > 10 µM |  |  | COc1cccc(C(C)N2CC[C@H](Cc3ccncc3F)C2)n1 (mixture of isomers) [Product 146] |
| 59% | 7.76 µM |  |  | COCc1cc(C(C)N2CC[C@@H](Cc3cc(C)nc(OC)c3)C2)nn1C (mixture of isomers) [Product 132] |
| 30.5% | > 10 µM |  |  | COc1cccc(C(C)N2CC[C@H](Cc3ccc(C(F)(F)F)nc3)C2)n1 (mixture of isomers) [Product 142] |
| 56% | 9.55 µM |  |  | COc1cccc(C(C)N2CC[C@H](Cc3ccnc(OC(C)C)c3)C2)n1 (mixture of isomers) [Product 126] |
| 38% | > 10 µM |  |  | COc1cncc(C[C@H]2CCN(C(C)c3cccc(OC)n3)C2)c1 (mixture of isomers) [Product 143] |
| 14.4% | > 10 µM |  |  | COc1cccc(C(C)N2CC[C@H](Cc3cccc(C(F)(F)F)n3)C2)n1 (mixture of isomers) [Product 147] |
| 29% | > 10 µM |  |  | CNC(=O)c1nc(C(C)N2CC[C@@H](Cc3cc(C)nc(C)c3)C2)c[nH]1 (mixture of isomers) [Product 163] |
| 60% | 7.24 µM |  |  | COc1cccc(C(C)N2CC[C@H](Cc3ccnc(C(F)(F)F)c3)C2)n1 (mixture of isomers) [Product 127] |
| 35.6% | > 10 µM |  |  | COc1cccc(C(C)N2CC[C@H](Cc3cncc(C(F)(F)F)c3)C2)n1 (mixture of isomers) [Product 141] |
